Test results taken from patent US3998971A, “Novel N-vinyloxyethyl-α-methyl-β-phenethylamines for depressing appetite” (Abbott Laboratories, priority 1975, dated 1976).
Entries after “also recorded” stand apart in the source; their conditions may differ. Counter-ions that a name gives are not always drawn.

How the values were obtained:
Mouse = test: Symtomatology Tests in the Mouse; assay type: in vivo; conditions: for stimulant effects: low doses (10-50 mg/kg)
Text: Symtomatology Tests in the Mouse

[1] = test system: rat serum lipids and glucose; test: Effect of pre-treatment on rat serum lipids and glucose induced by olive oil gavage; assay type: in vivo, rat (male Sprague Dawley); conditions: for Serum Free Fatty Acids: 20 mg/kg i.p. 2 hours before olive oil (20 ml/kg gavage); for Serum Free Fatty Acids / Serum Concentration, Cholesterol / Serum Concentration, Glucose / Serum Concentration, Glycerol / Serum Concentration, Triglycerides: blood 3 hours after oil; for Serum Concentration, Cholesterol / Serum Concentration, Glucose / Serum Concentration, Glycerol / Serum Concentration, Triglycerides: 20 mg/kg i.p. 2 hours before olive oil; for inhibiting the increase in serum triglycerides induced by olive oil gavage: % of the oil treated group; for reduction of olive oil induced increase in serum cholesterol: HCl salts; for inhibiting the increase in serum triglycerides, compared with fenfluramine: olive oil gavage
Text: The effect of pre-treatment with fenfluramine and the HCl salts of the compounds of formula B in which R is Cl or CF3 on rat serum lipids and glucose induced by olive oil gavage.
The present study was designed to compare the effects of fenfluramine, and the HCl salts of the compounds of formula B in which R=Cl and CF3 on serum glucose and lipid parameters in male rats after an olive oil meal.
Twenty-four male Sprague Dawley rats (200-250 g.) were divided into 8 groups as follows:
The animals were not fasted. Where indicated, the rats were pre-treated (intraperitoneally) with the appropriate drug for 2 hours prior to the administration of olive oil. Three hours after olive oil treatment, the animals were anesthetized with ether and blood samples obtained by cardiac puncture of the exposed heart. In each case, total treatment time was 5 hours.

Rats [2] = test: Sidman Avoidance Test in the Rat; assay type: in vivo, rat (male, Long Evans black-hooded); conditions: for effect on performance / behavior: 8 mg/kg; for effect on performance / behavior / effect on performance in Sidman Avoidance test / effect on response rate / effect on shock rate: in words; for effect on performance in Sidman Avoidance test / effect on response rate / effect on shock rate: overall
Procedure: The compound fenfluramine and the HCl salt compound of formula B in which R is Cl were examined in the Sidman Avoidance test.
Fenfluramine was run as a standard compound for comparative purposes in the study of appetite-suppressing drugs. The effects of drug-induced behavior are evaluated using the technique of Sidman Avoidance (Sidman, M., J. Comp. Physiol. Psychol. 46:253-261, 1953).
Male, Long Evans black-hooded rats (Simonsen Labs) weighing approximately 500 grams are run individually in Lehigh Valley Electronics rodent test chambers. Sessions (day/night) are 7.5 hours and 14 hours in length, respectively. The paradigm consists of two distinct temporal intervals for neither of which is the rat given any exteroceptive cues. The amount of time that elapses between shocks designates the shock-shock interval, is of a predetermined fixed length (10 seconds), and programmed by a recycling timer. When the rat responds by pressing a lever, the shock-shock interval is terminated and the response-shock interval is started. This interval is also of a predetermined fixed length (30 seconds) and programmed by a recycling timer. Both timers never operate simultaneously. The response-shock interval begins anew each time the rat responds on the lever. If the interval should elapse without the rat responding, a Shock (0.5 seconds, 10 mA) is given via the grid floor and the response-shock interval ends and the shock-shock interval begins.
Drug effects are evaluated as a precentage deviation of the rat's behavior from his baseline rate (responses/minute and shocks/minute). These effects are analyzed in 15 minute segments and an overall percentage deviation (response index and shock index) is determined.
based on an 8 mg/kg oral dose.

diabetics = conditions: cited from earlier work
Rats [3] = test: Reduction of food consumption in rats (average daily consumption of food, ED50); assay type: in vivo, rat; conditions: for % Change From Control Value in Average Daily Consumption of Food: one hour prior to feeding; for ED50: Rattus norvegicus, po, read-out: Calculated ED50 (dose necessary to reduce the intake of food by 50%); for potency compared with fenfluramine: HCl salts, summary in words; for Relative Potency: Summary of Table II, fenfluramine = 1
Procedure: Table II records the percent change in average daily consumption of food at various dosage levels upon administration of fenfluramine or the HCl salt of the compounds of formula B in which R is Cl or CF3 as well as the dose in milligrams per killograms necessary to reduce the intake of food by 50% (ED 50). […] In this study, drugs were administered one hour prior to feeding on the fifth day of regular food intake at doses of 5, 10 and 20 milligrams per killogram, with five rats being dosed at each level and fifteen rats serving as controls.
*ED50 : dose (mg/kg) necessary to reduce the intake of food by 50%.

[4] = test system: plasma free fatty acids and triglycerides; conditions: cited from earlier work
Rats [5] = test: Acute Toxicity in Rats; assay type: in vivo, rat; conditions: for Mortality Ratio / toxicity relative to fenfluramine: rats; for toxicity compared with fenfluramine / toxicity relative to fenfluramine: HCl salts; for toxicity compared with fenfluramine: summary in words; for toxicity relative to fenfluramine: acute
Acute Toxicity in Rats = assay type: in vivo, rat; conditions: rat, in vivo, po; P.O., rats; range in parentheses; read-out: Calculated LD50
[6] = Solubility of the salt in water; conditions: HCl salt
[7] = Comparison with fenfluramine: stimulating properties; assay type: in vivo; conditions: HCl salts, in words
[8] = 8 mg/kg oral, 7.5 hours session, 4 rats

SMILES | stimulant effects (Mouse) | Serum Free Fatty Acids [1] | Serum Concentration, Cholesterol [1] | Serum Concentration, Glucose [1] | Serum Concentration, Glycerol [1] | Serum Concentration, Triglycerides [1] | Shock Rate (percentage deviation from baseline rate) (Rats [2]; [8]) | effect on performance / behavior (Rats [2]) | effect on performance in Sidman Avoidance test (Rats [2]) | effect on response rate (Rats [2]) | effect on shock rate (Rats [2]) | % Change From Control Value in Average Daily Consumption of Food (Rats [3]; 5 mg/kg P.O., rats) | % Change From Control Value in Average Daily Consumption of Food (Rats [3]; 10 mg/kg P.O., rats) | % Change From Control Value in Average Daily Consumption of Food (Rats [3]; 20 mg/kg P.O., rats) | ED50 (Rats [3]; P.O., rats) | Mortality Ratio (Rats [5]; 0.25 gm/kg P.O.) | LD50 (Acute Toxicity in Rats) | inhibiting the increase in serum triglycerides induced by olive oil gavage [1] | reduction of olive oil induced increase in serum cholesterol [1] | inhibiting the increase in serum triglycerides, compared with fenfluramine ([1]; in words) | also measured
CN[C@@H](C)Cc1ccccc1 [Methamphetamine, methamphetamine] | stimulant effects |  |  |  |  |  |  |  |  |  |  |  |  |  |  |  |  |  |  |  | 
CCNC(C)Cc1cccc(C(F)(F)F)c1 (centres unmarked) [Fenfluramine, reference compound] | stimulant effects | 919±61 μEq/liter | 140±3 mg% | 160±9 mg% | 1.6±.10 mg% | 61±1 mg% | -50% | amphetamine-like effect on performance | all doses to be effective in producing significant results; also recorded: results indicative of amphetamine-like compounds | increase in response rate | decrease in shock rate | -18.7% | -39.3% | -50.5% | 20 mg/kg | 4/6 | 225 mg/kg |  |  |  | effect on olive oil induced increase in serum cholesterol ([1]; in words): unaffected; Response Rate (percentage deviation from baseline rate) (Rats [2]; [8]): +15%; sedative or stimulant action (diabetics; Nursing 74): acts as a sedative rather than a stimulant; glucose tolerance in diabetics (diabetics; Turtle et al.): appears to improve glucose tolerance in diabetics; undesirable side effects (diabetics; diabetics, Turtle et al.): without producing undersirable side effects; post absorption glucose levels (diabetics; given before meals, maturity onset and insulin-requiring diabetics, Turtle et al.): consistently reduced post absorption glucose levels; Calculated ED50 (dose necessary to reduce the intake of food by 50%) (Rats [3]; P.O., rats): 20.7 mg/kg; intestinal absorption of triglycerides ([4]; Bizzi et al.): inhibition of the intestinal absorption of triglycerides; plasma triglycerides ([4]; fed, but not fasted, animals, Garattini et al.): decrease in plasma triglycerides in fed, but not fasted, animals; concentration of plasma free fatty acids ([4]; rats, Bizzi et al.): rapid increase; rise in plasma triglycerides after olive oil gavage ([4]; several hours after olive oil gavage, prior treatment of rats): inhibited; Mortality Ratio (Rats [5]; 0.1 gm/kg P.O.): 0/6; Mortality Ratio (Rats [5]; 0.2 gm/kg P.O.): 2/6; Mortality Ratio (Rats [5]; 0.3 gm/kg P.O.): 5/6
C=COCCNC(C)Cc1ccc(Cl)cc1 (stereo not drawn) [HCl Salt, R=Cl, N-(2-vinyloxyethyl)-α-methyl-β-(4-cholorophenyl) ethylamine hydrochloride] |  | 780±66 μEq/liter | 116±8 mg% | 159±1 mg% | 1.8±.30 mg% | 62±7 mg% | -55% | did not significantly affect behavior except for the parameter of shock rate which was reduced | did not affect performance significantly overall | response rate remaining stable | sharp decrease in shock rate | -24.5% | -53.5% | -87.3% | 7.7 mg/kg | 0/6 | 950 mg/kg | 50-55% | 14-19% | comparable to fenfluramine | potency compared with fenfluramine (Rats [3]): considerably more potent; Relative Potency (Rats [3]): 2.5; potency relative to fenfluramine (times) (Rats [3]; rats, P.O.): approximately 2.5 times; solubility in water [6]: soluble in water; stimulatory effect (Mouse; high doses (300-1000 mg/kg)): only a weak stimulatory effect; Mortality Ratio (Rats [5]; 0.5 gm/kg P.O.): 1/6; Mortality Ratio (Rats [5]; 1.0 gm/kg P.O.): 3/6; Mortality Ratio (Rats [5]; 1.25 gm/kg P.O.): 4/6; Mortality Ratio (Rats [5]; 1.50 gm/kg P.O.): 5/6; Mortality Ratio (Rats [5]; 2.00 gm/kg P.O.): 6/6; toxicity compared with fenfluramine (Rats [5]): considerably less toxic than fenfluramine; toxicity relative to fenfluramine (Rats [5]): approximately four times less toxic than fenfluramine; stimulating properties [7]: minimum stimulating properties
C=COCCNC(C)Cc1cccc(C(F)(F)F)c1 (stereo not drawn) [HCl Salt, R=CF3, N-(2-vinyloxyethyl)-α-methyl-β-(3-trifluoromethylphenyl) Phenethylamine Hydrochloride] |  | 870±61 μEq/liter | 122±10 mg% | 159±7 mg% | 2.1±.40 mg% | 62±13 mg% |  |  |  |  |  | -22.9% | -28.3% | -76.0% | 17.4 mg/kg |  | 1010 mg/kg | 50-55% | 14-19% | comparable to fenfluramine | potency compared with fenfluramine (Rats [3]): considerably more potent; Relative Potency (Rats [3]): 1.2; potency relative to fenfluramine (times) (Rats [3]; rats, P.O.): ~1.2 times; solubility in water [6]: soluble in water; Mortality Ratio (Rats [5]; 0.5 gm/kg P.O.): 0/6; Mortality Ratio (Rats [5]; 0.75 gm/kg P.O.): 1/6; Mortality Ratio (Rats [5]; 0.85 gm/kg P.O.): 2/6; Mortality Ratio (Rats [5]; 1.0 gm/kg P.O.): 4/6; Mortality Ratio (Rats [5]; 2.00 gm/kg P.O.): 5/6; toxicity compared with fenfluramine (Rats [5]): considerably less toxic than fenfluramine; toxicity relative to fenfluramine (Rats [5]): approximately four times less toxic than fenfluramine; stimulating properties [7]: minimum stimulating properties
